Assay results: PubChem BioAssay AID220 (DTP/NCI, 2004)
Where “and” joins values, the source holds several entries; their conditions need not be identical. Identical values can stand only once. Results filed as inconclusive are left out.

Test system: CD8F1 mice, subcutaneous mammary adenocarcinoma, T/C%
Experiment: NCI In Vivo Anticancer Drug Screen. Data for tumor model Mammary Adenocarcinoma CD8F1 (subcutaneous) in CD8F1
Details: higher = larger tumour
Summary of the method: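 Transplantable tumors were established in mice, animals were dosed with compound or vehicle, and survival or tumor size was then measured in both groups. The treated result was divided by the control result.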

[1] = endpoint: median tumor weight (est.), dose: 128.0 mg/kg/injection, schedule: Q07DX005 (ip), vehicle: saline
[2] = endpoint: median tumor weight (est.), dose: 12.5 mg/kg/injection, schedule: Q07DX005 (ip), vehicle: saline with Tween-80
[3] = endpoint: median tumor weight (est.), dose: 25.0 mg/kg/injection, schedule: Q07DX005 (ip), vehicle: saline with Tween-80
[4] = endpoint: median tumor weight (est.), dose: 100.0 mg/kg/injection, schedule: Q07DX005 (ip), vehicle: saline with Tween-80
[5] = endpoint: median tumor weight (est.), dose: 200.0 mg/kg/injection, schedule: Q07DX005 (ip), vehicle: saline with Tween-80
[6] = endpoint: median tumor weight (est.), dose: 400.0 mg/kg/injection, schedule: Q07DX005 (ip), vehicle: saline with Tween-80

With Cc1cc(NCCCCCCCCNc2cc(C)nc3cc(N(C)C)ccc23)c2ccc(N(C)C)cc2n1 the T/C (endpoint: median tumor weight change, dose: 31.0 mg/kg/injection, schedule: Q01DX001 (ip), vehicle: distilled water + Tween-80) was 35 % of control, the T/C (endpoint: median tumor weight change, dose: 62.5 mg/kg/injection, schedule: Q01DX001 (ip), vehicle: distilled water + Tween-80) was 47 % of control and 54 % of control and the T/C (endpoint: median tumor weight change, dose: 125.0 mg/kg/injection, schedule: Q01DX001 (ip), vehicle: distilled water + Tween-80 + alcohol) was 105 % of control. The T/C (endpoint: median tumor weight change, dose: 250.0 mg/kg/injection, schedule: Q01DX001 (ip), vehicle: distilled water + Tween-80 + alcohol) was 104 % of control.
With CS(C)=O the T/C (endpoint: median tumor weight (est.), dose: 1.5 grams/kg/injection, schedule: Q07DX005 (ip), vehicle: saline) was 106 % of control and 122 % of control.
For N[C@H](C(=O)O)[C@@H]1CC(Cl)=NO1, the T/C (endpoint: median tumor weight (est.), dose: 1.0 mg/kg/injection, schedule: Q07DX005 (ip), vehicle: saline) was 167 % of control, the T/C (endpoint: median tumor weight (est.), dose: 2.0 mg/kg/injection, schedule: Q07DX005 (ip), vehicle: saline) was 92 % of control and 100 % of control and 101 % of control and the T/C [1] was 13 % of control.
Nc1cc2[nH]cnc2c(=O)[nH]1 was tested, and the T/C (endpoint: mean tumor weight, dose: 20.0 mg/kg/injection, schedule: Q07DX006 (ip), vehicle: saline) was 83 % of control, the T/C (endpoint: mean tumor weight, dose: 40.0 mg/kg/injection, schedule: Q07DX006 (ip), vehicle: saline) was 50 % of control and the T/C (endpoint: mean tumor weight, dose: 80.0 mg/kg/injection, schedule: Q07DX006 (ip), vehicle: saline) was 76 % of control. For the same molecule, the T/C (endpoint: median tumor weight (est.), dose: 12.5 mg/kg/injection, schedule: Q07DX005 (ip), vehicle: suspension in saline) was 56 % of control, the T/C (endpoint: median tumor weight (est.), dose: 25.0 mg/kg/injection, schedule: Q07DX005 (ip), vehicle: suspension in saline) was 79 % of control and the T/C (endpoint: median tumor weight (est.), dose: 50.0 mg/kg/injection, schedule: Q07DX005 (ip), vehicle: suspension in saline) was 56 % of control. The T/C (endpoint: median tumor weight (est.), dose: 100.0 mg/kg/injection, schedule: Q07DX005 (ip), vehicle: suspension in saline) was 80 % of control and the T/C (endpoint: median tumor weight (est.), dose: 200.0 mg/kg/injection, schedule: Q07DX005 (ip), vehicle: suspension in saline) was 64 % of control.
For O=C1SC(c2ccccc2)=S=C1c1ccccc1, the T/C (endpoint: median tumor weight change, dose: 125.0 mg/kg/injection, schedule: Q01DX001 (ip), vehicle: saline with Tween-80) was 67 % of control, the T/C (endpoint: median tumor weight change, dose: 250.0 mg/kg/injection, schedule: Q01DX001 (ip), vehicle: saline with Tween-80) was 100 % of control and the T/C (endpoint: median tumor weight change, dose: 500.0 mg/kg/injection, schedule: Q01DX001 (ip), vehicle: saline with Tween-80) was 60 % of control. The T/C (endpoint: median tumor weight change, dose: 1000.0 mg/kg/injection, schedule: Q01DX001 (ip), vehicle: saline with Tween-80) was 56 % of control.
In the case of S=c1nc[nH]c2nc[nH]c12, the T/C (endpoint: mean tumor weight (est.), dose: 135.0 mg/kg/injection, schedule: Q07DX005 (ip), vehicle: sodium bicarbonate) is reported as 42 % of control, the T/C (endpoint: mean tumor weight, dose: 15.0 mg/kg/injection, schedule: Q01DX009 (ip), vehicle: saline) is reported as 16 % of control and the T/C (endpoint: mean tumor weight, dose: 30.0 mg/kg/injection, schedule: Q01DX009 (ip), vehicle: saline) is reported as 5 % of control. For the same molecule, the T/C (endpoint: mean tumor weight, dose: 35.0 mg/kg/injection, schedule: Q07DX007 (ip), vehicle: saline) was 98 % of control, the T/C (endpoint: mean tumor weight, dose: 60.0 mg/kg/injection, schedule: Q01DX009 (ip), vehicle: saline) was 14 % of control and the T/C (endpoint: mean tumor weight, dose: 67.5 mg/kg/injection, schedule: Q07DX005 (ip), vehicle: saline) was 57 % of control. The T/C (endpoint: mean tumor weight, dose: 67.5 mg/kg/injection, schedule: Q07DX006 (ip), vehicle: sodium bicarbonate) was 49 % of control, the T/C (endpoint: mean tumor weight, dose: 67.5 mg/kg/injection, schedule: Q07DX007 (ip), vehicle: saline) was 81 % of control and the T/C (endpoint: mean tumor weight, dose: 135.0 mg/kg/injection, schedule: Q07DX005 (ip), vehicle: saline) was 37 % of control. For the same molecule, the T/C (endpoint: median tumor weight (est.), dose: 4.0 mg/kg/injection, schedule: Q07DX005 (ip), vehicle: saline) was 73 % of control, the T/C (endpoint: median tumor weight (est.), dose: 6.25 mg/kg/injection, schedule: Q07DX005 (ip), vehicle: Klucel (hydroxypropylcellulose) (HPC)) was 78 % of control and the T/C (endpoint: median tumor weight (est.), dose: 8.0 mg/kg/injection, schedule: Q07DX005 (ip), vehicle: saline) was 78 % of control. The T/C (endpoint: median tumor weight (est.), dose: 16.0 mg/kg/injection, schedule: Q07DX005 (ip), vehicle: saline) was 350 % of control, the T/C (endpoint: median tumor weight (est.), dose: 25.0 mg/kg/injection, schedule: Q07DX005 (ip), vehicle: Klucel (hydroxypropylcellulose) (HPC)) was 80 % of control and the T/C (endpoint: median tumor weight (est.), dose: 32.0 mg/kg/injection, schedule: Q07DX005 (ip), vehicle: saline) was 78 % of control. The T/C (endpoint: median tumor weight (est.), dose: 50.0 mg/kg/injection, schedule: Q07DX005 (ip), vehicle: Klucel (hydroxypropylcellulose) (HPC)) was 48 % of control, the T/C (endpoint: median tumor weight (est.), dose: 64.0 mg/kg/injection, schedule: Q07DX005 (ip), vehicle: saline) was 101 % of control and the T/C (endpoint: median tumor weight (est.), dose: 100.0 mg/kg/injection, schedule: Q07DX005 (ip), vehicle: Klucel (hydroxypropylcellulose) (HPC)) was 17 % of control. For the same molecule, the T/C [1] was 28 % of control.
With CC(=O)O[C@H]1C(=O)[C@@]2(C)[C@H]([C@H](OC(=O)c3ccccc3)[C@]3(O)C[C@H](OC(=O)[C@H](O)[C@@H](NC(=O)c4ccccc4)c4ccccc4)C(C)=C1C3(C)C)[C@]1(OC(C)=O)CO[C@@H]1C[C@@H]2O the T/C (endpoint: median tumor weight (est.), dose: 15.0 mg/kg/injection, schedule: Q07DX005 (ip), vehicle: Klucel (hydroxypropylcellulose) (HPC)) was 57 % of control.
For COc1cc2cc(c1Cl)N(C)C(=O)C[C@H](OC(=O)[C@H](C)N(C)C(C)=O)[C@]1(C)O[C@H]1[C@H](C)[C@@H]1C[C@@](O)(NC(=O)O1)[C@H](OC)C=C/C=C(\C)C2, the T/C (endpoint: median tumor weight (est.), dose: 0.03 mg/kg/injection, schedule: Q07DX005 (ip), vehicle: Klucel (hydroxypropylcellulose) (HPC)) was 167 % of control, the T/C (endpoint: median tumor weight (est.), dose: 0.06 mg/kg/injection, schedule: Q07DX005 (ip), vehicle: Klucel (hydroxypropylcellulose) (HPC)) was 151 % of control and the T/C (endpoint: median tumor weight (est.), dose: 0.12 mg/kg/injection, schedule: Q07DX005 (ip), vehicle: Klucel (hydroxypropylcellulose) (HPC)) was 264 % of control. For the same molecule, the T/C (endpoint: median tumor weight (est.), dose: 0.25 mg/kg/injection, schedule: Q07DX005 (ip), vehicle: Klucel (hydroxypropylcellulose) (HPC)) was 188 % of control, the T/C (endpoint: median tumor weight (est.), dose: 62.0 micrograms/kg/injection, schedule: Q07DX005 (ip), vehicle: Klucel (hydroxypropylcellulose) (HPC)) was 54 % of control and the T/C (endpoint: median tumor weight (est.), dose: 125.0 micrograms/kg/injection, schedule: Q07DX005 (ip), vehicle: Klucel (hydroxypropylcellulose) (HPC)) was 77 % of control. The T/C (endpoint: median tumor weight (est.), dose: 250.0 micrograms/kg/injection, schedule: Q07DX005 (ip), vehicle: Klucel (hydroxypropylcellulose) (HPC)) was 110 % of control, the T/C (endpoint: median tumor weight (est.), dose: 500.0 micrograms/kg/injection, schedule: Q07DX005 (ip), vehicle: Klucel (hydroxypropylcellulose) (HPC)) was 93 % of control and the T/C (endpoint: median tumor weight change, dose: 125.0 micrograms/kg/injection, schedule: Q01DX001 (ip), vehicle: Klucel (hydroxypropylcellulose) (HPC)) was 67 % of control. The T/C (endpoint: median tumor weight change, dose: 500.0 micrograms/kg/injection, schedule: Q01DX001 (ip), vehicle: Klucel (hydroxypropylcellulose) (HPC)) was 29 % of control and 35 % of control, the T/C (endpoint: median tumor weight change, dose: 1000.0 micrograms/kg/injection, schedule: Q01DX001 (ip), vehicle: Klucel (hydroxypropylcellulose) (HPC)) was 3 % of control and 21 % of control and the T/C (endpoint: median tumor weight change, dose: 2000.0 micrograms/kg/injection, schedule: Q01DX001 (ip), vehicle: Klucel (hydroxypropylcellulose) (HPC)) was 12 % of control.
With ClC(Cl)(Cl)C1=NCc2nnn(Cc3ccccc3)c2N1 the T/C [2] was 102 % of control, the T/C [3] was 66 % of control and the T/C [4] was 191 % of control. The T/C [5] was 107 % of control and the T/C [6] was 96 % of control.
CC(C)[NH-].CC(C)[NH-].O.O.[Cl][Pt+2][Cl] was tested, and the T/C (endpoint: median tumor weight (est.), dose: 6.25 mg/kg/injection, schedule: Q07DX005 (ip), vehicle: dextrose) was 121 % of control, the T/C (endpoint: median tumor weight (est.), dose: 12.5 mg/kg/injection, schedule: Q07DX005 (ip), vehicle: dextrose) was 121 % of control and the T/C (endpoint: median tumor weight (est.), dose: 25.0 mg/kg/injection, schedule: Q07DX005 (ip), vehicle: dextrose) was 110 % of control. For the same molecule, the T/C (endpoint: median tumor weight (est.), dose: 50.0 mg/kg/injection, schedule: Q07DX005 (ip), vehicle: dextrose) was 8 % of control.
For COC1=C(OC)C(=O)C(SC/C=C(\C)CCCC(C)CCCC(C)CCCC(C)C)=CC1=O (stereo not given), the T/C [2] was 164 % of control, the T/C [3] was 110 % of control and the T/C (endpoint: median tumor weight (est.), dose: 50.0 mg/kg/injection, schedule: Q07DX005 (ip), vehicle: saline with Tween-80) was 32 % of control. For the same molecule, the T/C [4] was 68 % of control, the T/C [5] was 85 % of control and the T/C [6] was 52 % of control.
In the case of CC(=O)OC1(C)CC(C)C(=O)C(C(O)CC2CC(=O)NC(=O)C2)C1 (stereo not given), the T/C (endpoint: median tumor weight (est.), dose: 94.0 micrograms/kg/injection, schedule: Q07DX005 (ip), vehicle: saline) is reported as 57 % of control, the T/C (endpoint: median tumor weight (est.), dose: 188.0 micrograms/kg/injection, schedule: Q07DX005 (ip), vehicle: saline) is reported as 34 % of control and the T/C (endpoint: median tumor weight (est.), dose: 375.0 micrograms/kg/injection, schedule: Q07DX005 (ip), vehicle: saline) is reported as 37 % of control. The T/C (endpoint: median tumor weight (est.), dose: 750.0 micrograms/kg/injection, schedule: Q07DX005 (ip), vehicle: saline) was 32 % of control.
O=C1CCC(=O)N1CO was tested, and the T/C (endpoint: median tumor weight change, dose: 125.0 mg/kg/injection, schedule: Q01DX001 (ip), vehicle: saline) was 97 % of control, the T/C (endpoint: median tumor weight change, dose: 250.0 mg/kg/injection, schedule: Q01DX001 (ip), vehicle: saline) was 89 % of control and the T/C (endpoint: median tumor weight change, dose: 500.0 mg/kg/injection, schedule: Q01DX001 (ip), vehicle: saline) was 81 % of control. The T/C (endpoint: median tumor weight change, dose: 1000.0 mg/kg/injection, schedule: Q01DX001 (ip), vehicle: saline) was 75 % of control.
